In PMC5515969, “Effects of 31 FDA approved small-molecule kinase inhibitors on isolated rat liver mitochondria” (Archives of Toxicology, 2016):

Assays:
RCC I = RCC I activity in submitochondrial particles; type: biochemical, rat; set-up: key to RCC I at 10XCmax / RCC I at 100XCmax / RCC I at 50XCmax / RCC I at 30XCmax / RCC I at 20XCmax: activity relative to DMSO-treated controls (control set as 1 = 100%); settings: 10XCmax; DMSO treated samples set as 1
Procedure, shortened: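 Abs 340 nm (I/V) or 600 nm (II), 1-min reads × 6 min; 550 nm (III, IV), 10-s reads × 2 min. RCC I = rotenone-free minus rotenone rate. DMSO control = 1.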

[1] = tested on: isolated rat liver mitochondria; test: Mitochondrial oxygen consumption (glutamate/malate or succinate driven, state 4 and state 3); type: biochemical; settings: DMSO treated samples set as 1; as to State 3 respiration driven by succinate at 10XCmax: key: 0 indicates that the drug had no effects (negative); as to State 3 respiration driven by succinate at 1XCmax: key: 0 indicates that the drug had no effects (negative)
Procedure, shortened: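 Rat liver mitochondria (1 mg/ml protein) exposed 5 min to kinase inhibitors in 0.1% DMSO, then O2 consumption measured by Clark-type electrode with glutamate/malate or succinate (state 4), ADP added after 3 min (state 3). Rates normalized to 0.1% DMSO controls set to 1.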

[2] = human, in vivo; cited from earlier work
[3] = tested on: isolated rat liver mitochondria; test: Mitochondrial swelling (absorbance at 535 nm); type: biochemical; settings: difference in signal between KI and DMSO treated samples at the end of experiments; as to Swelling 5XCmax: key: 0 indicates that the drug had no effects (negative)
[4] = tested on: isolated rat liver mitochondria; test: Mitochondrial ROS production (CM-H2DCFDA); settings: DMSO treated samples set as 1
[5] = tested on: isolated rat liver mitochondria; test: Mitochondrial inner membrane potential (MMP), Rhodamine 123; type: biochemical; settings: difference in signal between KI and DMSO treated samples at the end of experiments
Excerpt: Fig. 3 KI effects on mitochondrial inner membrane potential (MMP). […] In a, c, data are means and standard derivations from three separate experiments. *p < 0.05 as compared to DMSO-treated samples at the end of experiments. In b, data are means of two independent experiments

[6] = Solubility of DMSO stock for 100X/50X Cmax testing; type: physicochemical
Excerpt: Supplement 204_2016_1918_MOESM3_ESM.xlsx, sheet "Sheet1" | column: 100 Cmax; 50 Cmax; note

[7] = tested on: isolated rat liver mitochondria; settings: positive control alamethicin treated samples
[8] = in vivo; cited from earlier work
RCC IV = RCC IV activity in submitochondrial particles; type: biochemical, rat; set-up: key to RCC IV at 50XCmax / RCC IV at 100XCmax: activity relative to DMSO-treated controls (control set as 1 = 100%); settings: 50XCmax; DMSO treated samples set as 1; in %
Procedure, shortened: (§1)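 Kinase inhibitors were preincubated 15 min with submitochondrial particles (1 mg/ml) before complex activities were measured. RCC I was the rotenone-sensitive portion (activity without minus with rotenone). RCC I/V was read at 340 nm and RCC II at 600 nm every 1 min for 6 min. RCC III and IV were read at 550 nm every 10 s for 2 min. Activities are normalized to DMSO controls set as 1.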

RCC II = target: T1, RCC II (Rattus norvegicus, UniProt P21913+Q641Z9+Q6PCT8+Q920L2); test: RCC II activity in submitochondrial particles; type: biochemical; set-up: key: activity relative to DMSO-treated controls (control set as 1 = 100%); settings: DMSO treated samples set as 1
T1 construct: Submitochondrial particles were prepared by subjecting the intact mitochondria to three successive freeze–thaw cycles; from tissue; host or cells: rat liver mitochondria, used as submitochondrial particles
T1 sequence (Q920L2 35-656): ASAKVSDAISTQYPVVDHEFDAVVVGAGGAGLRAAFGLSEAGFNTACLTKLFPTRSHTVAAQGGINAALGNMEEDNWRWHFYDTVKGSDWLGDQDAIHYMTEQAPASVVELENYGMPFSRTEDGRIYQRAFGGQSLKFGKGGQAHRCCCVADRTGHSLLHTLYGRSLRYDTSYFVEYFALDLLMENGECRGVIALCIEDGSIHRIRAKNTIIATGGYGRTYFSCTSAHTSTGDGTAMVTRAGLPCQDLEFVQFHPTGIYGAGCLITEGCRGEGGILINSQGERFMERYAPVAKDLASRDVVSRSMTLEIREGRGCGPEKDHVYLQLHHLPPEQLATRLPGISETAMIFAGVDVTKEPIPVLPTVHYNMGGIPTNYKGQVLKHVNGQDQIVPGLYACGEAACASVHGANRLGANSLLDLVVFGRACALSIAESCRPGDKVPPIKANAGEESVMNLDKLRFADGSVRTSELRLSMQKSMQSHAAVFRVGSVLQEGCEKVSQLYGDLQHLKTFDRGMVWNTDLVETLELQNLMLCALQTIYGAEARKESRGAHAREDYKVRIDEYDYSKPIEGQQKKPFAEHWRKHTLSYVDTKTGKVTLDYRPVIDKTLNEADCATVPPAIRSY
T1 sequence (P21913 31-282): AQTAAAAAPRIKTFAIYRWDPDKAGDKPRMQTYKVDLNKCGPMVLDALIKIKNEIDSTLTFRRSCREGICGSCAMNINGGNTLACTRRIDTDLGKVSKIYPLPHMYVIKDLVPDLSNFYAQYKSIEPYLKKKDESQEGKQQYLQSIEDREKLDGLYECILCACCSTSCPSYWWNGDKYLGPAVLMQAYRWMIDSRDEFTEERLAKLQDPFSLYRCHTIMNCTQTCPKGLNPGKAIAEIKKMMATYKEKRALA
T1 sequence (Q641Z9 1-169): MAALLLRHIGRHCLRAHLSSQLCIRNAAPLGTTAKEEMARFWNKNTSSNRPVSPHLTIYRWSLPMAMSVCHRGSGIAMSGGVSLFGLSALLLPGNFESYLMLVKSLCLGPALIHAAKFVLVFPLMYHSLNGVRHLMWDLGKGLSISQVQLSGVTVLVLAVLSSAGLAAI
T1 sequence (Q6PCT8 57-159): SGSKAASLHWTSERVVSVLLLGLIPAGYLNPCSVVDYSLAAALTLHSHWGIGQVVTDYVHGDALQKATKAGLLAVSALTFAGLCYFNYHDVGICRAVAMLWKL
Procedure, shortened: as §1

RCC III = RCC III activity in submitochondrial particles; type: biochemical, rat; set-up: key to RCC III at 100XCmax: activity relative to DMSO-treated controls (control set as 1 = 100%); settings: 100XCmax
Procedure, shortened: as §1

RCC V = RCC V activity in submitochondrial particles; type: biochemical, rat; settings: DMSO treated samples set as 1; as to RCC V at 5XCmax: key: 0 indicates that the drug had no effects (negative)
Procedure, shortened: as §1

With C=CC(=O)Nc1cc(Nc2nccc(-c3cn(C)c4ccccc34)n2)c(OC)cc1N(C)CCN(C)C.CS(=O)(=O)O [osimertinib mesylate] the “RCC I at 10XCmax” value (RCC I) was 0, the “State 3 respiration driven by succinate at 1XCmax” value ([1]; 1XCmax) was 0 and the “State 4 respiration driven by succinate at 1XCmax” value ([1]; 1XCmax) was 0. For the same molecule, the “State 3 respiration driven by succinate at 2.5XCmax” value ([1]; 2.5XCmax) was 0, the “State 4 respiration driven by succinate at 2.5XCmax” value ([1]; 2.5XCmax) was 0 and the “State 3 respiration driven by succinate at 5XCmax” value ([1]; 5XCmax) was 0. The “State 4 respiration driven by succinate at 5XCmax” value ([1]; 5XCmax) was 0, the “State 3 respiration driven by succinate at 10XCmax” value ([1]; 10XCmax) was 0 and the “State 4 respiration driven by succinate at 10XCmax” value ([1]; 10XCmax) was 0. The “State 3 respiration driven by succinate at 20XCmax” value ([1]; 20XCmax) was 0, the “State 4 respiration driven by succinate at 20XCmax” value ([1]; 20XCmax) was 0 and the “State 3 respiration driven by succinate at 30XCmax” value ([1]; 30XCmax) was 0. For the same molecule, the “State 4 respiration driven by succinate at 30XCmax” value ([1]; 30XCmax) was 0, the “State 3 respiration driven by succinate at 50XCmax” value ([1]; 50XCmax) was 0 and the “State 4 respiration driven by succinate at 50XCmax” value ([1]; 50XCmax) was 0. The “State 3 respiration driven by succinate at 100XCmax” value ([1]; 100XCmax) was 0, the “State 4 respiration driven by succinate at 100XCmax” value ([1]; 100XCmax) was 0 and the Cmax [2] was 500 nM. The “Swelling 1XCmax” value ([3]; 1XCmax) was 0, the “Swelling 2.5XCmax” value ([3]; 2.5XCmax) was 0 and the “Swelling 5XCmax” value ([3]; 5XCmax) was 0. For the same molecule, the “Swelling 10XCmax” value ([3]; 10XCmax) was 0, the “Swelling 20XCmax” value ([3]; 20XCmax) was 0 and the “Swelling 30XCmax” value ([3]; 30XCmax) was 0. The “Swelling 50XCmax” value ([3]; 50XCmax) was 0, the “Swelling 100XCmax” value ([3]; 100XCmax) was 0 and the “ROS measured by CM-H2DCFDA at 1XCmax” value ([4]; 1XCmax) was 0. The “ROS measured by CM-H2DCFDA at 2.5XCmax” value ([4]; 2.5XCmax) was 0, the “ROS measured by CM-H2DCFDA at 5XCmax” value ([4]; 5XCmax) was 0 and the “ROS measured by CM-H2DCFDA at 10XCmax” value ([4]; 10XCmax) was 0. The “ROS measured by CM-H2DCFDA at 20XCmax” value ([4]; 20XCmax) was 0, the “ROS measured by CM-H2DCFDA at 30XCmax” value ([4]; 30XCmax) was 1.38±0.13 and the “ROS measured by CM-H2DCFDA at 50XCmax” value ([4]; 50XCmax) was 1.80±0.32. For the same molecule, the “ROS measured by CM-H2DCFDA at 100XCmax” value ([4]; 100XCmax) was 3.35±0.28, the “MMP measured by Rhodamine 123 at 1XCmax” value ([5]; 1XCmax) was 0 and the “MMP measured by Rhodamine 123 at 2.5XCmax” value ([5]; 2.5XCmax) was 0. For the same molecule, the “MMP measured by Rhodamine 123 at 5XCmax” value ([5]; 5XCmax) was 0, the “MMP measured by Rhodamine 123 at 10XCmax” value ([5]; 10XCmax) was 0 and the “MMP measured by Rhodamine 123 at 20XCmax” value ([5]; 20XCmax) was 0. The “MMP measured by Rhodamine 123 at 30XCmax” value ([5]; 30XCmax) was 0, the “MMP measured by Rhodamine 123 at 50XCmax” value ([5]; 50XCmax) was 0 and the “MMP measured by Rhodamine 123 at 100XCmax” value ([5]; 100XCmax) was 0. For the same molecule, the “note (DMSO stock)” value [6] was 50 mM will precipitate, the “Cytochrome c release 1XCmax” value ([7]; 1XCmax) was 0 and the “Cytochrome c release 2.5XCmax” value ([7]; 2.5XCmax) was 0. For the same molecule, the “Cytochrome c release 5XCmax” value ([7]; 5XCmax) was 0, the “Cytochrome c release 10XCmax” value ([7]; 10XCmax) was 0 and the “Cytochrome c release 20XCmax” value ([7]; 20XCmax) was 0. The “Cytochrome c release 30XCmax” value ([7]; 30XCmax) was 0, the “Cytochrome c release 50XCmax” value ([7]; 50XCmax) was 0 and the “Cytochrome c release 100XCmax” value ([7]; 100XCmax) was 6.58±0.09 percentage of the positive control group. The Labeling for cardiotoxicity [8] was “W&P: QTc Interval Prolongation; Cardiomyopathy”, the “Potential for cardiotoxicity (based on labeling)” value [8] was 1 and the “RCC IV at 50XCmax” value (RCC IV) was 0. The “RCC II at 1.0XCmax” value (RCC II; 1.0XCmax) was 0, the “RCC II at 2.5XCmax” value (RCC II; 2.5XCmax) was 0 and the “RCC II at 5XCmax” value (RCC II; 5XCmax) was 0. The “RCC II at 10XCmax” value (RCC II; 10XCmax) was 0, the “RCC II at 20XCmax” value (RCC II; 20XCmax) was 0 and the “RCC II at 30XCmax” value (RCC II; 30XCmax) was 0. The “RCC II at 50XCmax” value (RCC II; 50XCmax) was 0, the “RCC II at 100XCmax” value (RCC II; 100XCmax) was 0 and the “RCC III at 100XCmax” value (RCC III) was 0. For the same molecule, the “RCC V at 5XCmax” value (RCC V; 5XCmax) was 0 and the “RCC V at 50XCmax” value (RCC V; 50XCmax) was 0.
